One assay deals with mice. The assay can be described thus: Analgesic activity in mice by the tail-flick method, peptide injected icv. As to conditions: for In vivo analgesic activity Relative Potency: molar basis, βc-endorphin = 100; for In vivo analgesic activity AD50: tail-flick, male ICR mice, (95% confidence limit). Format: in vivo. As for the experimental part:
The analgesic activity of the synthetic products was assessed in mice by the tail-flick method of D'Amour and Smith J. Pharmacol. Exp. Ther. 72, 74 (1941). Male ICR mice weighing 25-30 g were used. The peptide was injected icv in a volume of 5 μl as described by Haley and McCormick, Br. J. Pharmacol. 12, 12 (1957). To evaluate the tail-flick response, a control latency (T0) was obtained from the mean of two latencies determined prior to the peptide injection; the test latencies (T1) were determined at various times after injection for each animal. "Percent analgesia" was calculated as [(T1 -T0)/(T2 -T0)] × 100; where the cutoff time (T2) was 10 sec. With a twofold increase in latency of reaction time of the reponse as a quantal index of inhibition, the median antinociceptive dose (AD50) and 95% confidence limits were calculated as described by Litchfield and Wilcoxon, J. Pharmacol. Exp. Ther. 96, 99 (1949).
In general terms: Hot-plate and tail-flick tests time the reaction to a heat stimulus.

A further assay deals with guinea pig ileum. The assay can be described thus: In vitro opiate activity, guinea pig ileum method of Kosterlitz et al. Type of assay: cell-based. As to conditions: for In vitro opiate activity: guinea pig ileum, βc-endorphin = 100. From the text: The opiate activity of the peptide of the invention, the parent peptide and other fragment analogs thereof as assayed in vitro by the guinea pig ileum method of Kosterlitz et al., Brit. J. Pharmacol. 39, 398 (1970) is seen in Table 2 below.

As to “βc -endorphin (YGGFMTSEKSQTPLVTLFKNAIIKNAHKKGQ; Beta-endorphin; UniProt P01203 1-31, looked up) [parent peptide]”, the “In vivo analgesic activity Relative Potency” value in the assay on mice is recorded as 100. Besides, the “In vivo analgesic activity AD50” value with mice (icv) is listed as 0.11 (0.07-0.17) μg/mouse. For the same substance, the “In vitro opiate activity” value with guinea pig ileum is recorded as 100.

Consider βc -Endorphin-(1-5)-(28-31), for which the “In vivo analgesic activity Relative Potency” value in the assay on mice is given as below 0.1. Further, the “In vivo analgesic activity AD50” value in the assay on mice (icv) was above 86 μg/mouse. Also, the “In vitro opiate activity” value with guinea pig ileum is 35.

With “βc -endorphin (6-31) (TSEKSQTPLVTLFKNAIIKNAHKKGQ; Beta-endorphin; UniProt P01203 6-31, looked up, fragment) [βc -Endorphin-(6-31)]”, the “inhibition of the tail-flick response” value with mice (doses of 42.5 and 85 μg, icv, mice) is listed as “slight inhibition of the tail-flick response”. The “analgesic activity (tail flick method)” value in the assay on mice (mice) was “intrinsic measurable analgesic activity”. For the same substance, the “In vivo analgesic activity Relative Potency” value with mice is given as below 0.1. In addition, in the assay with mice (icv), the “In vivo analgesic activity AD50” value was above 86 μg/mouse. In addition, the “reversal of activity by naloxone” value with guinea pig ileum (activity as assayed in vitro) is “not reversed by naloxone”. Further, the “In vitro opiate activity” value in the assay with guinea pig ileum came out at 4. For the same substance, the “potency relative to βc-endorphin as assayed in vitro” value in the assay on guinea pig ileum (of βc-endorphin) is 4%.

In the case of βh -Endorphin-(1-5)-(16-31), the “In vivo analgesic activity Relative Potency” value in the assay with mice was found to be 0.3. Moreover, the “In vivo analgesic activity AD50” value with mice (icv) was 25.1(16.8-37.1) μg/mouse. The “In vitro opiate activity” value in the assay with guinea pig ileum is 135.
